Data on seven compounds can be found in ChEMBL document CHEMBL4622883, “Bisbenzylisoquinoline alkaloids and P-glycoprotein function: A structure activity relationship study” (Bioorg Med Chem, 2020).

What all share (assay type): cell-based
The target of data set [1] is T1, ATP-dependent translocase ABCB1 (Homo sapiens, UniProt P08183). Description: Inhibition of P-glycoprotein-mediated Rhodamine-123 efflux in human MOLT4/DNR cells assessed as inhibition of P-glycoprotein efflux function at 10 uM incubated for 1 hr by flow cytometry. (In general: In flow cytometry, cells or beads pass a laser one at a time.)
In data set [2] the target is T1, ATP-dependent translocase ABCB1. Description: Inhibition of P-glycoprotein-mediated Rhodamine-123 efflux in human MOLT4/DNR cells assessed as inhibition of P-glycoprotein efflux function at 1 uM incubated for 1 hr by flow cytometry.
Data set [3] shares this target. Description: Inhibition of P-glycoprotein-mediated Rhodamine-123 efflux in human MOLT4/DNR cells assessed as inhibition of P-glycoprotein efflux function at 0.3 uM incubated for 1 hr by flow cytometry.
The target is the same in data set [4]. Description: Inhibition of P-glycoprotein-mediated Rhodamine-123 efflux in human MOLT4/DNR cells assessed as Rhodamine-123 accumulation incubated for 1 hr by flow cytometry.

T1 sequence (P08183 whole entry): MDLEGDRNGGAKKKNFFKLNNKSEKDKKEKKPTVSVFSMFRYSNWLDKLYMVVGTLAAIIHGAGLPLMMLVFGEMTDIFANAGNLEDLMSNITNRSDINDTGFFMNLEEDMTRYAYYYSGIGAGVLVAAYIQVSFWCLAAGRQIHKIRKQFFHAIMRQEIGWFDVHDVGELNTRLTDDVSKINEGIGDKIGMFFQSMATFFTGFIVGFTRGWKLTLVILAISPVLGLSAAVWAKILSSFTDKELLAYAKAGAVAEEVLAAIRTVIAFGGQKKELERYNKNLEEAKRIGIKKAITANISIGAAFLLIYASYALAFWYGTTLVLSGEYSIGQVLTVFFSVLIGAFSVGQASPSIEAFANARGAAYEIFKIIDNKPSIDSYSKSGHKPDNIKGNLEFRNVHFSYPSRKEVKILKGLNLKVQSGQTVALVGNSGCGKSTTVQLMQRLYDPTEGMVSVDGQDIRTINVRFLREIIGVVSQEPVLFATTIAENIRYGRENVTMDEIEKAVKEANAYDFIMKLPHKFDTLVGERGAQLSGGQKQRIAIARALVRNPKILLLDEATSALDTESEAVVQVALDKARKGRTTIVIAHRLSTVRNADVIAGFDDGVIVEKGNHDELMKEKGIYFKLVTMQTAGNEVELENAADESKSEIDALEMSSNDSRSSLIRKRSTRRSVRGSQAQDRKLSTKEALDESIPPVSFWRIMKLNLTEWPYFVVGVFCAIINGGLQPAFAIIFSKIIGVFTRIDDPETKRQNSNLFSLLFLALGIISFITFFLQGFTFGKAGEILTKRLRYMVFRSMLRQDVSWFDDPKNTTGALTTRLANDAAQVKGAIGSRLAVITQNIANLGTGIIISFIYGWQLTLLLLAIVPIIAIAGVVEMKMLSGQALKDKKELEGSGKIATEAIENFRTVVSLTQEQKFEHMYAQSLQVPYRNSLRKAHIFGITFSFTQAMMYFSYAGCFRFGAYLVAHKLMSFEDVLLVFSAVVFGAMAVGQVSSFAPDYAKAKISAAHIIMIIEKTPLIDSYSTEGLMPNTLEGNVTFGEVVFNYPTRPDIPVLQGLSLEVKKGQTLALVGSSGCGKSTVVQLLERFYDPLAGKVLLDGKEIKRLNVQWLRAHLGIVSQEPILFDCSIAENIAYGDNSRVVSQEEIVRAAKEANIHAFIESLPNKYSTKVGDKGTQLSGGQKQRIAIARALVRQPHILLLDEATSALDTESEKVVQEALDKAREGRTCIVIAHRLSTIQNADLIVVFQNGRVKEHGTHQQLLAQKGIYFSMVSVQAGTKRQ

For `COc1cc2c(cc1OC)[C@@H](Cc1ccc(O)cc1)N(C)CC2`, the “inhibition (INH)” value in data set [1] is “Active”.
Regarding `COc1ccc2cc1Oc1ccc(cc1)C[C@H]1c3cc(c(OC)cc3CCN1C)Oc1c(OC)c(OC)cc3c1[C@@H](C2)N(C)CC3`, the “inhibition (INH)” value in data set [2] is “Not Active”; in data set [3], “Not Active”; in data set [1] it was “Active”.
On to `COc1cc2c3cc1Oc1c(OC)c(OC)cc4c1[C@@H](Cc1ccc(O)c(c1)Oc1ccc(cc1)C[C@@H]3N(C)CC2)N(C)CC4` [BERBAMINE], for which the entries for the “inhibition (INH)” value in data set [2], in data set [3] and in data set [1] were “Not Active”, “Not Active” and “Active”, respectively.
Turning to `COc1ccc2cc1Oc1ccc(cc1)C[C@H]1c3c(cc4c(c3Oc3cc5c(cc3OC)CCN(C)[C@@H]5C2)OCO4)CCN1C` [CEPHARANTHINE], the results for the “inhibition (INH)” value in data set [2] and in data set [1] were “Not Active” and “Active”, respectively.
On to `COc1cc2c(cc1OC)[C@@H](Cc1ccc(Oc3cc(C[C@@H]4c5cc(OC)c(OC)cc5CCN4C)ccc3O)cc1)N(C)CC2` [DAURICINE], for which, in data set [1], the “inhibition (INH)” value was “Active”.
Consider `COc1ccc2cc1Oc1ccc(cc1)C[C@H]1c3cc(c(OC)cc3CCN1C)Oc1c(OC)c(OC)cc3c1[C@H](C2)N(C)CC3` [FANCHININ], for which the “inhibition (INH)” value in data set [2] is “Active”; in data set [4], “Dose-dependent effect”; in data set [3], “Active”; in data set [1], “Active”.
With `COc1ccc2cc1Oc1ccc(cc1)C[C@H]1c3cc(c(OC)cc3CCN1C)Oc1c(O)c(OC)cc3c1[C@H](C2)N(C)CC3` [FANGCHINOLINE], the figures for the “inhibition (INH)” value in data set [2] and in data set [1] were “Not Active” and “Active”, respectively.
